Reference: EP2151441A1, “Beta-carbolin-derivates as substrates for an enzyme” (Julius-Maximilians-Universität Würzburg, priority 2008, dated 2010)
Like-named read-outs stand apart in the source and are kept apart here.

How the values were obtained:
CYP2D6 = biological target: T1, CYP2D6 (Homo sapiens, UniProt P10635); experiment: Catalytic activity of other CYP enzymes for the reaction of substance 1a; type: biochemical; settings: 2 µM substance 1a, 15 pmol/ml CYP enzyme, Fig. 2
T1 construct: purchased BD Biosciences (Supersomes)
Experimental: (§1) For the determination of the catalytic activity of other CYP-enzymes with respect to the reaction of substance 1a 2 µM of substance 1a were contacted with 15 pmol/ml CYP enzyme (Supersomes®, BD Biosciences) and 2 mM NADPH in 100 mM potassium phosphate puffer (pH 7.4; 3 mM MgCl2) with the exception of CYP3A4 that was used at a concentration of 5 pmol/ml.

CYP1B1 = biological target: T2, CYP1B1 (Homo sapiens, UniProt Q16678); experiment: as above; type: biochemical; settings: 2 µM substance 1a, 15 pmol/ml CYP enzyme, Fig. 2
T2 construct: purchased BD Biosciences (Supersomes)
T2 sequence (Q16678 1-543): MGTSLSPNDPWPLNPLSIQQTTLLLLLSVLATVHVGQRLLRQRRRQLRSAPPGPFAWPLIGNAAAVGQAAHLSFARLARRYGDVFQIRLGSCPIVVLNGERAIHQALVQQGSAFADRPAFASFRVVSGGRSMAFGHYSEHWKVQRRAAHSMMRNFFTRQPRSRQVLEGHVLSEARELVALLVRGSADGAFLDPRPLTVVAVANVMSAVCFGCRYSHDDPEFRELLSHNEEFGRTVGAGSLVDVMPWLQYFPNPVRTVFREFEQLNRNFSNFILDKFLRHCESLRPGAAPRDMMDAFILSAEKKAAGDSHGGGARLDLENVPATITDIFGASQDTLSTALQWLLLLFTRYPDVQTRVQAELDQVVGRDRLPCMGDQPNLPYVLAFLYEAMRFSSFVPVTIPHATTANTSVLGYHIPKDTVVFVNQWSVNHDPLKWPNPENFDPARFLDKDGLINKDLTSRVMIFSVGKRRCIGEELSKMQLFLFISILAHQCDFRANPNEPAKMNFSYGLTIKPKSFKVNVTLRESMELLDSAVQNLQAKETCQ
Experimental: as §1

recombinant human CPY3A4 = biological target: T3, recombinant human CPY3A4 (Homo sapiens, UniProt P08684); experiment: Catalytic activity of CYP3A4 for the reaction with substance 1a; type: biochemical
T3 construct: purchased BD Biosciences (Supersomes)
Experimental: After incubation for 20 minutes at 37°C the metabolite 1b was quantified using liquid chromatography followed by mass spectrometry. For this reaction 4.5 pmol/min/pmol CYP3A4 could be determined as activity of the enzyme. According to US 6,207,404 the activity of CYP3A4 for the reaction of BFC at a concentration of 50 µM is about 1.5 pmol/min/pmol CYP3A4. […] For the determination of the catalytic activity of other CYP-enzymes with respect to the reaction of substance 1a 2 µM of substance 1a were contacted with 15 pmol/ml CYP enzyme (Supersomes®, BD Biosciences) and 2 mM NADPH in 100 mM potassium phosphate puffer (pH 7.4; 3 mM MgCl2) with the exception of CYP3A4 that was used at a concentration of 5 pmol/ml.

CYP3A4 [1] = biological target: T4, CYP3A4 (Homo sapiens, UniProt P08684); experiment: Determination of Km and Vmax of the CYP3A4-catalyzed O-dealkylation reaction (LC-MS quantification of reaction product 1b); type: biochemical; design: purchased BD Biosciences (Supersomes); settings: Vmax comparison with BFC
Experimental: The Michaelis-Menten constant (Km) and the maximal reaction velocity (Vmax) are important parameters for inhibition assays. To determine the inhibitory activity of test compounds the substrate concentration in the assay should be about the Km value. […] After incubation for 20 minutes at 37°C the reaction product 1b was quantified using mass spectrometry after liquid chromatography. […] For the calculation of Km and Vmax the Sigma Plot 10.0 software with enzyme kinetic module (SPSS, Inc., Chicago, IL, USA) was used.

CYP3A4 [2] = biological target: T4, CYP3A4; settings: cited from earlier work; for Km: according to US 6,207,404 (BFC, BzRes) or Walsky and Obach 2004 (Midazolam)
[3] = according to US 6,207,404 (BzRes) or Walsky and Obach 2004 (Midazolam)

T4 sequence (P08684 whole entry): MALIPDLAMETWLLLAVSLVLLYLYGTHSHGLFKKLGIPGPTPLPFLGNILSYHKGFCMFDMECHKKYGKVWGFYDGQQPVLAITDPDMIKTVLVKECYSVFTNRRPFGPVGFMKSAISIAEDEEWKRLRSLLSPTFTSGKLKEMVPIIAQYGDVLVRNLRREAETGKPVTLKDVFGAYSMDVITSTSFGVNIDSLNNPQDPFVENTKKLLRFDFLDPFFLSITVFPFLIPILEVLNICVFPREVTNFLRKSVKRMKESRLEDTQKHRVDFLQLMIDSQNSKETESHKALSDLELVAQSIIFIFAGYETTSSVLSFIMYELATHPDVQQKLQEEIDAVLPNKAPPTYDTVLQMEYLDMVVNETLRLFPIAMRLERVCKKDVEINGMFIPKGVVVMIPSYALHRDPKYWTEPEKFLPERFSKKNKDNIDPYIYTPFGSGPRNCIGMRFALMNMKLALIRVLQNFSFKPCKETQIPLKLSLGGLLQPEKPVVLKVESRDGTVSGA
T3 sequence (P08684 whole entry): as above
T1 sequence (P10635 whole entry): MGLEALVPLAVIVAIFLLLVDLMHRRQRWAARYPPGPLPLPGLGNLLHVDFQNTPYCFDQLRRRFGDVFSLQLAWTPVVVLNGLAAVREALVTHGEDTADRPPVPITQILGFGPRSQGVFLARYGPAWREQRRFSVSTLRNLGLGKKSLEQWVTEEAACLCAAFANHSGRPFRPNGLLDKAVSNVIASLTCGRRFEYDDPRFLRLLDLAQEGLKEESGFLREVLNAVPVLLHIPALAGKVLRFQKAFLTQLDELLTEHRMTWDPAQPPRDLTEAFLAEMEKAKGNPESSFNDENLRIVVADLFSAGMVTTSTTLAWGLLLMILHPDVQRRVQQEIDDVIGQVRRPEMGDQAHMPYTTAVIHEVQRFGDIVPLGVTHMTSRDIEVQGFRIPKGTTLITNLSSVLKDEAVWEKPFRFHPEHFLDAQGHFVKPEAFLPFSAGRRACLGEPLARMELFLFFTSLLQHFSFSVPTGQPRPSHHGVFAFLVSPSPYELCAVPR

**Q.** For `Cc1c2[nH]c3cc(OCc4ccccc4)ccc3c2cc[n+]1Cc1ccccc1.O=C([O-])C(F)(F)F` [Substance 1a, 2-benzyl-7-benzyloxy-1-methyl-9H-pyrido[3,4-b]indol-2-ium trifluoroacetate salt], which “reaction of substrate 1a to reaction product 1b catalyzed by enzyme” value (“reaction of substrate 1a” for short) (CYP2D6) is on record?
**A.** Its value is “could be catalyzed”.

**Q.** What about the “reaction of substrate 1a” value (CYP1B1) of the same molecule?
**A.** The value was “could be catalyzed”.

**Q.** What about the “activity of the enzyme relative to the reaction of BFC” value (recombinant human CPY3A4; 2 µM 1a versus 50 µM BFC) of the same molecule?
**A.** Its value is 3 fold.

**Q.** And the “activity of the enzyme” value (recombinant human CPY3A4; 2 µM substance 1a, 5 pmol/ml CYP3A4, 2 mM NADPH, 20 minutes at 37°C)?
**A.** Its value is 4.5 pmol/min/pmol CYP3A4.

**Q.** What about the “reaction of substrate 1a” value (recombinant human CPY3A4; 2 µM substance 1a, CYP3A4 at 5 pmol/ml, Fig. 2) of the same molecule?
**A.** The value was “could be catalyzed”.

**Q.** What about the “reaction velocity relative to BFC” value (CYP3A4 [1]) of the same molecule?
**A.** The value was “about 5 fold”.

**Q.** For `O=c1cc(C(F)(F)F)c2ccc(OCc3ccccc3)cc2o1` [BFC, 7-benzyloxy-4-trifluoromethylcumarin], which “activity of CYP3A4 for the reaction of BFC” value (CYP3A4 [2]; BFC at a concentration of 50 µM, according to US 6,207,404) is on record?
**A.** Its value is “about 1.5 pmol/min/pmol CYP3A4”.

**Q.** And the Km (CYP3A4 [2])?
**A.** The Km was over 200 µM.

**Q.** What about the Vmax (CYP3A4 [2]; at 40 µM BFC, according to US 6,207,404) of the same molecule?
**A.** Its Vmax is 1.5 (at 40 µM BFC) pmol/min/pmol CYP3A4.

**Q.** What does the source list for `Cc1ncc2n1-c1ccc(Cl)cc1C(c1ccccc1F)=NC2` [Midazolam]?
**A.** Km (CYP3A4 [2]): 0.6 µM; Vmax (CYP3A4 [2]; [3]): 16.3 pmol/min/pmol CYP3A4

**Q.** Which Km (CYP3A4 [2]) does the source give for `O=c1ccc2nc3ccc(OCc4ccccc4)cc3oc-2c1` [BzRes, benzyloxyresorufin] here?
**A.** The Km was 38 µM.

**Q.** What about the Vmax (CYP3A4 [2]; [3]) of the same molecule?
**A.** The Vmax was 0.3 pmol/min/pmol CYP3A4.
